Laboratory results from patent US10934310B2, “Inhibitors of Bruton's tyrosine kinase and method of their use” (JANSSEN PHARMACEUTICA NV, priority 2015, dated 2021).

Biological target: unphosphorylated-BTK kinase domain (UP-BTK), GST-tagged human BTK (389-659aa) (Homo sapiens (Human), UniProt Q06187)
Assay: BTK Kinase Lanthascreen Binding Assay
Conditions: compound, 50 nM Tracer 236, 2 nM anti-GST antibody, 60 minutes; pIC50 = negative log of the IC50 in molar
Protocol: BTK Kinase Lanthascreen Binding Assay:
A BTK kinase lanthascreen binding assay monitors compound binding to unphosphorylated-BTK kinase domain (UP-BTK), by competing with a fluorescent labeled tracer. […] Data were analyzed using Xlfit™ version 5.3 from ID Business Solutions (Guildford), Microsoft Excel add-in. pIC50 refers to the negative log of the IC50 in molar.

Sequence of unphosphorylated-BTK kinase domain (UP-BTK), GST-tagged human BTK (389-659aa) (Q06187 389-659): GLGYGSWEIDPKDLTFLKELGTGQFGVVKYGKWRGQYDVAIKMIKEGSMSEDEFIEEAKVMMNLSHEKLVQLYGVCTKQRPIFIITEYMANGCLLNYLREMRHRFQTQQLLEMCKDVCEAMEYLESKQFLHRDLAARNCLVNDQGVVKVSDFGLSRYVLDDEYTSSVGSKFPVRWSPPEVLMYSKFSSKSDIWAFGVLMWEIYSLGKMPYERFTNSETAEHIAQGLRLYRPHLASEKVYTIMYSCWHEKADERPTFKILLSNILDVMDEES

Q: How did the “BTK_I_binding pIC50” value turn out when `C=CC(=O)N[C@H]1CCC[C@@H]1NC(=O)c1sc2nccc3c2c1NC(=O)N3c1ccc(Oc2ccccc2)cc1C` (single isomer, unassigned) [Example 56, N-((1S,2S)-2-Acrylamidocyclopentyl)-5-(*R)-(2-methyl-4-phenoxyphenyl)-4-oxo-4,5-dihydro-3H-1-thia-3,5,8-triazaacenaphthylene-2-carboxamide] was run?
A: 5.77

Q: How did the “BTK_I_binding pIC50” value turn out when `Cc1cc(Oc2ccccc2)ccc1N1C(=O)Nc2c(C(=O)N[C@@H]3CCC[C@H]3O)sc3nccc1c23` (single isomer, unassigned) [Example 61, N-((1R,2R)-2-Hydroxycyclopentyl)-5-(*R)-(2-methyl-4-phenoxyphenyl)-4-oxo-4,5-dihydro-3H-1-thia-3,5,8-triazaacenaphthylene-2-carboxamide] was run?
A: 5.36

Q: `CC(=O)N[C@@H]1CCC[C@H]1NC(=O)c1sc2nccc3c2c1NC(=O)N3c1ccc(Oc2ccccc2)cc1C` (single isomer, unassigned) [Example 67, N-((1R,2R)-2-Acetamidocyclopentyl)-5-(*S)-(2-methyl-4-phenoxyphenyl)-4-oxo-4,5-dihydro-3H-1-thia-3,5,8-triazaacenaphthylene-2-carboxamide] was tested. Which “BTK_I_binding pIC50” value did it give?
A: 7.41

Q: Which “BTK_I_binding pIC50” value does the source give for `Cc1cc(Oc2ccccc2)ccc1N1C(=O)Nc2c(C(=O)N[C@H]3CC[C@@H](O)CC3)sc3nccc1c23` (single isomer, unassigned) [Example 83, N-((1S,4S)-4-Hydroxycyclohexyl)-5-(*S)-(2-methyl-4-phenoxyphenyl)-4-oxo-4,5-dihydro-3H-1-thia-3,5,8-triazaacenaphthylene-2-carboxamide] here?
A: 7.60

Q: For `Cc1cc(Oc2ccccc2)ccc1N1C(=O)Nc2c(C(=O)N[C@H]3CC[C@@H](O)CC3)sc3nccc1c23` (single isomer, unassigned) [Example 84, N-((1S,4S)-4-Hydroxycyclohexyl)-5-(*R)-(2-methyl-4-phenoxyphenyl)-4-oxo-4,5-dihydro-3H-1-thia-3,5,8-triazaacenaphthylene-2-carboxamide], which “BTK_I_binding pIC50” value is on record?
A: 6.21

Q: With `Cc1cc(Oc2ccccc2)ccc1N1C(=O)Nc2c(C(=O)N[C@H]3CC[C@H](O)CC3)sc3nccc1c23` (single isomer, unassigned) [Example 85, N-((1R,4R)-4-Hydroxycyclohexyl)-5-(*S)-(2-methyl-4-phenoxyphenyl)-4-oxo-4,5-dihydro-3H-1-thia-3,5,8-triazaacenaphthylene-2-carboxamide] as the compound, how does the “BTK_I_binding pIC50” value read?
A: 7.67

Q: With `CCC(=O)N[C@@H]1CC[C@H](NC(=O)c2sc3nccc4c3c2NC(=O)N4c2ccc(Oc3ccccc3)cc2C)C1` (single isomer, unassigned) [Example 87, 5-(*S)-(2-Methyl-4-phenoxyphenyl)-4-oxo-N-((1S,3R)-3-propionamidocyclopentyl)-4,5-dihydro-3H-1-thia-3,5,8-triazaacenaphthylene-2-carboxamide] as the compound, how does the “BTK_I_binding pIC50” value read?
A: 7.87

Q: Which “BTK_I_binding pIC50” value does the source give for `CCC(=O)N[C@H]1CC[C@@H](NC(=O)c2sc3nccc4c3c2NC(=O)N4c2ccc(Oc3ccccc3)cc2C)CC1` (single isomer, unassigned) [Example 92, 5-(*S)-(2-Methyl-4-phenoxyphenyl)-4-oxo-N-((1S,4S)-4-propionamidocyclohexyl)-4,5-dihydro-3H-1-thia-3,5,8-triazaacenaphthylene-2-carboxamide] here?
A: 6.91

Q: `CCC(=O)N[C@H]1CC[C@@H](NC(=O)c2sc3nccc4c3c2NC(=O)N4c2ccc(Oc3ccccc3)cc2C)CC1` (single isomer, unassigned) [Example 93, 5-(*R)-(2-Methyl-4-phenoxyphenyl)-4-oxo-N-((1S,4S)-4-propionamidocyclohexyl)-4,5-dihydro-3H-1-thia-3,5,8-triazaacenaphthylene-2-carboxamide] was tested. Which “BTK_I_binding pIC50” value did it give?
A: 6.99

Q: For `CC(=O)N[C@H]1CC[C@@H](NC(=O)c2sc3nccc4c3c2NC(=O)N4c2ccc(Oc3ccccc3)cc2C)CC1` (single isomer, unassigned) [Example 94, N-((1S,4S)-4-Acetamidocyclohexyl)-5-(*S)-(2-methyl-4-phenoxyphenyl)-4-oxo-4,5-dihydro-3H-1-thia-3,5,8-triazaacenaphthylene-2-carboxamide], which “BTK_I_binding pIC50” value is on record?
A: 7.59

Q: `CC(=O)N[C@H]1CC[C@@H](NC(=O)c2sc3nccc4c3c2NC(=O)N4c2ccc(Oc3ccccc3)cc2C)CC1` (single isomer, unassigned) [Example 95, N-((1S,4S)-4-Acetamidocyclohexyl)-5-(*R)-(2-methyl-4-phenoxyphenyl)-4-oxo-4,5-dihydro-3H-1-thia-3,5,8-triazaacenaphthylene-2-carboxamide] was tested. Which “BTK_I_binding pIC50” value did it give?
A: 6.14

Q: How did the “BTK_I_binding pIC50” value turn out when `C=CC(=O)N[C@@H]1CC[C@H](NC(=O)c2sc3nccc4c3c2NC(=O)N4c2ccc(Oc3ccccc3)cc2C)C1` (single isomer, unassigned) [Example 101, N-((1S,3R)-3-Acrylamidocyclopentyl)-5-(*S)-(2-methyl-4-phenoxyphenyl)-4-oxo-4,5-dihydro-3H-1-thia-3,5,8-triazaacenaphthylene-2-carboxamide] was run?
A: 7.95

Q: Which “BTK_I_binding pIC50” value does the source give for `Cc1cc(Oc2ccccc2)ccc1N1C(=O)Nc2c(C(=O)N[C@H]3CC[C@@H](NC(=O)CN(C)C)C3)sc3nccc1c23` (single isomer, unassigned) [Example 102, N-((1S,3R)-3-(2-(dimethylamino)acetamido)cyclopentyl)-5-(*S)-(2-methyl-4-phenoxyphenyl)-4-oxo-4,5-dihydro-3H-1-thia-3,5,8-triazaacenaphthylene-2-carboxamide] here?
A: 7.50

Q: `CNCC(=O)N[C@@H]1CC[C@H](NC(=O)c2sc3nccc4c3c2NC(=O)N4c2ccc(Oc3ccccc3)cc2C)C1` (single isomer, unassigned) [Example 103, 5-(*S)-(2-Methyl-4-phenoxyphenyl)-N-((1S,3R)-3-(2-(methylamino)acetamido)cyclopentyl)-4-oxo-4,5-dihydro-3H-1-thia-3,5,8-triazaacenaphthylene-2-carboxamide] was tested. Which “BTK_I_binding pIC50” value did it give?
A: 7.40

Q: `C=CC(=O)N[C@@H]1CCC[C@H]1NC(=O)c1sc2nccc3c2c1NC(=O)N3c1ccc(Oc2ccccc2)cc1C` (single isomer, unassigned) [Example 105, N-((1R,2R)-2-Acrylamidocyclopentyl)-5-(*S)-(2-methyl-4-phenoxyphenyl)-4-oxo-4,5-dihydro-3H-1-thia-3,5,8-triazaacenaphthylene-2-carboxamide] was tested. Which “BTK_I_binding pIC50” value did it give?
A: 8.11

Q: How did the “BTK_I_binding pIC50” value turn out when `C=CC(=O)N[C@H]1CCC[C@H]1NC(=O)c1sc2nccc3c2c1NC(=O)N3c1ccc(Oc2ccccc2)cc1C` (single isomer, unassigned) [Example 107, N-((1R,2S)-2-Acrylamidocyclopentyl)-5-(*S)-(2-methyl-4-phenoxyphenyl)-4-oxo-4,5-dihydro-3H-1-thia-3,5,8-triazaacenaphthylene-2-carboxamide] was run?
A: 8.25

Q: Which “BTK_I_binding pIC50” value does the source give for `C=CC(=O)N[C@H]1CCCC[C@H]1NC(=O)c1sc2nccc3c2c1NC(=O)N3c1ccc(Oc2ccccc2)cc1C` (single isomer, unassigned) [Example 108, N-((1R,2S)-2-Acrylamidocyclohexyl)-5-(*S)-(2-methyl-4-phenoxyphenyl)-4-oxo-4,5-dihydro-3H-1-thia-3,5,8-triazaacenaphthylene-2-carboxamide] here?
A: 7.56

Q: With `Cc1cc(Oc2ccccc2)ccc1N1C(=O)Nc2c(C(=O)N[C@@H]3CCC[C@H]3NC(=O)CN(C)C)sc3nccc1c23` (single isomer, unassigned) [Example 111, N-((1R,2R)-2-(2-(Dimethylamino)acetamido)cyclopentyl)-5-(*S)-(2-methyl-4-phenoxyphenyl)-4-oxo-4,5-dihydro-3H-1-thia-3,5,8-triazaacenaphthylene-2-carboxamide] as the compound, how does the “BTK_I_binding pIC50” value read?
A: 7.68

Q: Which “BTK_I_binding pIC50” value does the source give for `CNCC(=O)N[C@@H]1CCC[C@H]1NC(=O)c1sc2nccc3c2c1NC(=O)N3c1ccc(Oc2ccccc2)cc1C` (single isomer, unassigned) [Example 112, 5-(*S)-(2-Methyl-4-phenoxyphenyl)-N-((1R,2R)-2-(2-(methylamino)acetamido)cyclopentyl)-4-oxo-4,5-dihydro-3H-1-thia-3,5,8-triazaacenaphthylene-2-carboxamide] here?
A: 8.04

Q: `Cc1cc(Oc2ccccc2)ccc1N1C(=O)Nc2c(C(=O)N[C@@H]3CCC[C@H]3NC(=O)CN)sc3nccc1c23` (single isomer, unassigned) [Example 113, N-((1R,2R)-2-(2-Aminoacetamido)cyclopentyl)-5-(*S)-(2-methyl-4-phenoxyphenyl)-4-oxo-4,5-dihydro-3H-1-thia-3,5,8-triazaacenaphthylene-2-carboxamide] was tested. Which “BTK_I_binding pIC50” value did it give?
A: 7.88

Q: `C=CC(=O)N[C@@H]1CCC[C@@H]1NC(=O)c1sc2nccc3c2c1NC(=O)N3c1ccc(Oc2ccccc2)cc1C` (single isomer, unassigned) [Example 114, N-((1S,2R)-2-Acrylamidocyclopentyl)-5-(*S)-(2-methyl-4-phenoxyphenyl)-4-oxo-4,5-dihydro-3H-1-thia-3,5,8-triazaacenaphthylene-2-carboxamide] was tested. Which “BTK_I_binding pIC50” value did it give?
A: 6.81

Q: For `Cc1cc(Oc2ccccc2)ccc1N1C(=O)Nc2c(C(=O)N[C@@H]3CCC[C@@H]3N)sc3nccc1c23` (single isomer, unassigned) [Example 115, N-((1R,2S)-2-Aminocyclopentyl)-5-(*S)-(2-methyl-4-phenoxyphenyl)-4-oxo-4,5-dihydro-3H-1-thia-3,5,8-triazaacenaphthylene-2-carboxamide], which “BTK_I_binding pIC50” value is on record?
A: 7.57

Q: How did the “BTK_I_binding pIC50” value turn out when `C=CC(=O)N[C@H]1CCC[C@@H]1NC(=O)c1sc2nccc3c2c1NC(=O)N3c1ccc(Oc2ccccc2)cc1C` (single isomer, unassigned) [Example 116, N-((1S,2S)-2-Acrylamidocyclopentyl)-5-(*S)-(2-methyl-4-phenoxyphenyl)-4-oxo-4,5-dihydro-3H-1-thia-3,5,8-triazaacenaphthylene-2-carboxamide] was run?
A: 7.30
